pIC50: −log10 of the molar value.

The experiment deals with T1, human type 1 glycine transporter (GlyT1) (Homo sapiens, UniProt P48067).
T1 construct: T98G cells (glioma cells) expressing human type 1 glycine transporter (GlyT1) were used
T1 sequence (P48067 1-706): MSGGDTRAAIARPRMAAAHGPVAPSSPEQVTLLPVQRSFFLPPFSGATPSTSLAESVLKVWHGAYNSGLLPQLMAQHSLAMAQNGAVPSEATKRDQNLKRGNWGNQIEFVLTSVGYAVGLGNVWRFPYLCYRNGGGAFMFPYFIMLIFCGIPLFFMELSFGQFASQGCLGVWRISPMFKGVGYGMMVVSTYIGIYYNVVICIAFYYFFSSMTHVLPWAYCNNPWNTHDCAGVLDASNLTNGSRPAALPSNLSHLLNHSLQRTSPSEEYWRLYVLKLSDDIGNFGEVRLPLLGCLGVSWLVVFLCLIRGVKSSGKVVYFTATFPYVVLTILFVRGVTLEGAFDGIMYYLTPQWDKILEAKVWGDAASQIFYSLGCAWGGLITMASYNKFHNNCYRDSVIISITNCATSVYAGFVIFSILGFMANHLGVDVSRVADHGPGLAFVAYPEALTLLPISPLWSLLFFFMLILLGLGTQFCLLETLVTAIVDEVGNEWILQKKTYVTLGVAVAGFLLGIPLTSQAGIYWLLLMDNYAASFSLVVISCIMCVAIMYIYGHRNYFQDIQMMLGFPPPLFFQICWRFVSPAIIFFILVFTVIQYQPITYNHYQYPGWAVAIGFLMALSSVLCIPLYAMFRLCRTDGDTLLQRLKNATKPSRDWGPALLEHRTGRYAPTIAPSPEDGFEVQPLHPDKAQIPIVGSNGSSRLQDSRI
The experiment can be described thus: Glycine uptake inhibition experiment ([3H]glycine uptake). Type of experiment: cell-based. Summed up: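 T98G glioma cells expressing human GlyT1 were pretreated 10 min with compound in HEPES buffer pH 7.4 (0.2% BSA), then incubated with compound plus 250 nM final [3H]glycine for 15 min at room temperature. Intracellular radioactivity was counted after NaOH lysis; 10 μM ALX5407 defined non-specific uptake. IC50 came from 10^−9–10^−5 M curves.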

Turning to `CCn1cc(-c2cccc(C(NC(=O)c3nccc4ccccc34)C3(O)CCCC3)c2)cn1` (stereo not shown) [Compound 22, N-{[3-(1-ethyl-1H-pyrazol-4-yl)phenyl](1-hydroxycyclopentyl)methyl}isoquinoline-1-carboxamide], for the setting “GlyT1”, the pIC50 (usually −log10 of the IC50, conventionally taken in molar units) is 6.96.

`O=C(NC(c1cccc(Cl)n1)C1(O)CCCCC1)c1nccc(C(F)(F)F)c1Cl` (single isomer, unassigned) [Compound 384, 3-chloro-N-[(6-chloropyridin-2-yl)(1-hydroxycyclohexyl)methyl]-4-(trifluoromethyl)pyridine-2-carboxamide]: the pIC50 (GlyT1) was 8.03.

Under “GlyT1”, `O=C(NC(c1cccc(F)c1)C1(O)CCCCC1)c1nccc(C(F)(F)F)c1Cl` (stereo not shown) [Compound 63, 3-chloro-N-[(3-fluorophenyl)(1-hydroxycyclohexyl)methyl]-4-(trifluoromethyl)pyridine-2-carboxamide] showed a negative logarithm of the IC50 (pIC50) of 7.24. This pIC50 is 0.79 log units lower than that of the compound before.

For the compound `CN(C)Cc1cccc(C(NC(=O)c2nccc(C(F)(F)F)c2Cl)C2(O)CCCC2)c1` (stereo not shown) [Compound 112, 3-chloro-N-[{3-[(dimethylamino)methyl]phenyl}(1-hydroxycyclopentyl)methyl]-4-(trifluoromethyl)pyridine-2-carboxamide], the pIC50 (GlyT1) is 5.74.

`CS(=O)(=O)c1cc(C(F)(F)F)ccc1C(=O)NC(c1cccc(F)c1Cl)C1(O)CCC(F)(F)CC1` (single isomer, unassigned) [Compound 401, N-[(2-chloro-3-fluorophenyl)(4,4-difluoro-1-hydroxycyclohexyl)methyl]-2-(methylsulfonyl)-4-(trifluoromethyl)benzamide] gave a pIC50 (human GlyT1) of 6.64.

Where the note is “GlyT1”, `O=C(NC(c1cccc(Cl)c1F)C1(O)CCC(F)CC1)c1nccc(C(F)(F)F)c1Cl` (single isomer, unassigned) [Compound 200, 3-chloro-N-[(3-chloro-2-fluorophenyl)(4-fluoro-1-hydroxycyclohexyl)methyl}-4-(trifluoromethyl)pyridine-2-carboxamide] gave a pIC50 of 7.19.

Under “GlyT1”, `O=C(NC(c1cccc(F)c1Cl)[C@]1(O)CC[C@@H](F)CC1)c1ccccc1C1CC1` (single isomer, unassigned) [Compound 365, N-[(2-chloro-3-fluorophenyl)(cis-4-fluoro-1-hydroxycyclohexyl)methyl]-2-cyclopropylbenzamide] gave a negative-log IC50 (pIC50) of 5.55.

Consider `O=C(NC(c1cccc(F)c1Cl)[C@]1(O)CC[C@@H](F)CC1)c1ccc(C(F)(F)F)cc1-n1cccn1` (single isomer, unassigned) [Compound 390, N-[(2-chloro-3-fluorophenyl)(cis-4-fluoro-1-hydroxycyclohexyl)methyl]-2-(1H-pyrazol-1-yl)-4-(trifluoromethyl)benzamide], for which the pIC50 (GlyT1) was 6.89.

For the compound `O=C(NC(c1cccc(F)c1Cl)[C@]1(O)CC[C@@H](F)CC1)c1cccc(F)c1Cl` (single isomer, unassigned) [Compound 288, 2-chloro-N-[(2-chloro-3-fluorophenyl)(cis-4-fluoro-1-hydroxycyclohexyl)methyl]-3-fluorobenzamide], the pIC50 (GlyT1) is 6.00. This pIC50 lies 0.89 log units lower than the previous one.

`O=C(NC(c1cccc(-c2cccnc2)c1)C1(O)CCCCC1)c1nccc(C(F)(F)F)c1Cl` (single isomer, unassigned) [Compound 27, 3-chloro-N-{(1-hydroxycyclohexyl)[3-(pyridin-3-yl)phenyl]methyl}-4-(trifluoromethyl)pyridine-2-carboxamide] had a pIC50 (GlyT1) of 6.13.

Turning to `O=C(NC(c1cccc(F)c1Cl)[C@]1(O)CC[C@@H](F)CC1)c1ncc(Cl)cc1-n1nccn1` (single isomer, unassigned) [Compound 371, 5-chloro-N-[(2-chloro-3-fluorophenyl)(cis-4-fluoro-1-hydroxycyclohexyl)methyl]-3-(2H-1,2,3-triazol-2-yl)pyridine-2-carboxamide], the pIC50 (GlyT1) is 5.80.

For `CCn1cc(-c2cccc(C(NC(=O)c3cc(Cl)ccc3C(F)(F)F)C3(O)CCC(F)(F)CC3)c2)cn1` (stereo not shown) [Compound 203, 5-chloro-N-{(4,4-difluoro-1-hydroxycyclohexyl)[3-(1-ethyl-1H-pyrazol-4-yl)phenyl]methyl}-2-(trifluoromethyl)benzamide], the pIC50 (GlyT1) was 6.14.

Where the note is “GlyT1”, `O=C(NC(c1cccc(Br)c1)C1(O)CCCC1)c1cccc(C(F)(F)F)c1Cl` (stereo not shown) [Compound 2, N-[(3-bromophenyl)(1-hydroxycyclopentyl)methyl]-2-chloro-3-(trifluoromethyl)benzamide] gave a pIC50 of 6.17.

`O=C(NC(c1cccc(Cl)n1)C1(O)CCCC1)c1nccc(C(F)(F)F)c1Cl` (single isomer, unassigned) [Compound 397, 3-chloro-N-[(6-chloropyridin-2-yl)(1-hydroxycyclopentyl)methyl]-4-(trifluoromethyl)pyridine-2-carboxamide] gave a pIC50 (human GlyT1) of 7.80.

On to `O=C(NC(c1cccnc1Cl)C1(O)CCC(F)(F)CC1)c1cccc(C(F)(F)F)c1Cl` (single isomer, unassigned) [Compound 357, 2-chloro-N-[(2-chloropyridin-3-yl)(4,4-difluoro-1-hydroxycyclohexyl)methyl]-3-(trifluoromethyl)benzamide], for which the pIC50 (GlyT1) is 6.48.

Compound `O=C(NC(c1cccc(Br)c1)C1(O)CCC(F)(F)CC1)c1nccc(C(F)(F)F)c1Cl` (single isomer, unassigned) [Compound 89, N-[(3-bromophenyl)(4,4-difluoro-1-hydroxycyclohexyl)methyl]-3-chloro-4-(trifluoromethyl)pyridine-2-carboxamide] gave a pIC50 (GlyT1) of 5.96.

Consider `CS(=O)(=O)c1ncc(C(F)(F)F)cc1C(=O)NC(c1ccccc1Cl)C1(O)CCC(F)(F)CC1` (single isomer, unassigned) [Compound 404, N-[(2-chlorophenyl)(4,4-difluoro-1-hydroxycyclohexyl)methyl]-2-(methylsulfonyl)-5-(trifluoromethyl)pyridine-3-carboxamide], for which, under “human GlyT1”, the pIC50 was 6.77.

Regarding `O=C(NC(c1cccc(F)c1Cl)[C@]1(O)CC[C@@H](F)CC1)c1ccc(Cl)cc1-n1nccn1` (single isomer, unassigned) [Compound 285, 4-chloro-N-[(2-chloro-3-fluorophenyl)(cis-4-fluoro-1-hydroxycyclohexyl)methyl]-2-(2H-1,2,3-triazol-2-yl)benzamide], the negative logarithm of the IC50 (pIC50) (GlyT1) is 5.70.

Turning to `O=C(NC(c1cccc(F)c1Cl)[C@]1(O)CC[C@@H](F)CC1)c1cc(Cl)nnc1Cl` (single isomer, unassigned) [Compound 305, 3,6-dichloro-N-[(2-chloro-3-fluorophenyl)(cis-4-fluoro-1-hydroxycyclohexyl)methyl]pyridazine-4-carboxamide], the pIC50 (GlyT1) was 6.00.

Consider `CCn1cc(-c2cccc(C(NC(=O)c3ccc(Cl)cc3Cl)C3(O)CCC(F)(F)CC3)c2)cn1` (stereo not shown) [Compound 191, 2,4-dichloro-N-{(4,4-difluoro-1-hydroxycyclohexyl)[3-(1-ethyl-1H-pyrazol-4-yl)phenyl]methyl}benzamide], for which the pIC50 (GlyT1) is 5.89.

In the case of `O=C(NC(c1cccc(F)c1Cl)[C@]1(O)CC[C@@H](F)CC1)c1cccc(Cl)c1C(F)(F)F` (single isomer, unassigned) [Compound 312, 3-chloro-N-[(2-chloro-3-fluorophenyl)(cis-4-fluoro-1-hydroxycyclohexyl)methyl]-2-(trifluoromethyl)benzamide], the pIC50 (GlyT1) is 6.05.

The compound `Cn1nc(C(F)(F)F)cc1C(=O)NC(c1cccc(F)c1Cl)[C@]1(O)CC[C@@H](F)CC1` (single isomer, unassigned) [Compound 272, N-[(2-chloro-3-fluorophenyl)(cis-4-fluoro-1-hydroxycyclohexyl)methyl]-1-methyl-3-(trifluoromethyl)-1H-pyrazole-5-carboxamide] showed a pIC50 (GlyT1) of 5.60.

Regarding `O=C(NC(c1ccccc1Cl)[C@]1(O)CC[C@@H](F)CC1)c1cc(C(F)(F)F)cnc1Cl` (single isomer, unassigned) [Compound 367, 2-chloro-N-[(2-chlorophenyl)(cis-4-fluoro-1-hydroxycyclohexyl)methyl]-5-(trifluoromethyl)pyridine-3-carboxamide], the pIC50 (GlyT1) is 6.42.

The compound `O=C(NC(c1ncccc1Cl)[C@]1(O)CC[C@@H](F)CC1)c1nccc(C(F)(F)F)c1Cl` (single isomer, unassigned) [Compound 361, 3-chloro-N-[(3-chloropyridin-2-yl)(cis-4-fluoro-1-hydroxycyclohexyl)methyl]-4-(trifluoromethyl)pyridine-2-carboxamide] showed a pIC50 (GlyT1) of 6.52.

Take `O=C(NC(c1cccc(F)c1Cl)[C@]1(O)CC[C@@H](F)CC1)c1ccc(C(F)(F)F)nc1-n1ccnn1` (single isomer, unassigned) [Compound 394, N-[(2-chloro-3-fluorophenyl)(cis-4-fluoro-1-hydroxycyclohexyl)methyl]-2-(1H-1,2,3-triazol-1-yl)-6-(trifluoromethyl)pyridine-3-carboxamide]: under “GlyT1”, the pIC50 is 5.89.

The record behind these values is patent US20160130278A1 (TAISHO PHARMACEUTICAL CO., LTD, priority 2013, published 2016).
